pIC50: −log10 of the molar value. Where two headings read alike, the source gives them in different places.
Key:
[1] = tested on: T. cruzi (amastigotes); assay: T. cruzi amastigote assays; format: cell-based; conditions: Trypanosoma cruzi
[2] = tested on: T. gondii (tachyzoites); conditions: cited from earlier work; for T. gondii growth ED50: tachyzoites, already published data, ref 47-55 (see b12)
[3] = tested on: hypervirulent RH strain of T. gondii; conditions: cited from earlier work
[4] = tested on: T. gondii (tachyzoites); assay: T. gondii tachyzoites assays; format: cell-based; conditions: Toxoplasma gondii, read-out: T. gondii cells ED50, tachyzoites; Table 3
[5] = read-out: T. cruzi cells ED50, amastigotes, Table 3

CCCCCCCNC(P(=O)(O)O)P(=O)(O)O [Compound 25, 1-n-Heptylaminomethyl-1,1-bisphosphonic acid]
pIC50 [1, 5]: < 5.00

CCCCCCCCCC(F)(P(=O)(O)O)P(=O)(O)O [Compound 11]
T. gondii growth ED50 [2]: > 10.0 µM

CCCCCCCCNCC(O)(P(=O)(O)O)P(=O)(O)O [Compound 15]
T. gondii growth ED50 [2]: 2.0 µM

CCCCCCCSCC(P(=O)(O)O)P(=O)(O)O [Compound 16]
T. gondii growth ED50 [2]: 0.97 µM | effect in combination with statins in in vivo assays [3]: strong synergistic effect

O=P(O)(O)C(NC1CCCC1)P(=O)(O)O [Compound 30, (Cyclopentylamino)methyl-1,1-bisphosphonic acid]
pIC50 [1, 5]: < 5.00

CCCCCCNC(P(=O)(O)O)P(=O)(O)O [Compound 24, 1-n-Hexylaminomethyl-1,1-bisphosphonic acid]
pIC50 [1, 5]: < 5.00

O=P(O)(O)C(NC1CCCCC1)P(=O)(O)O [Compound 31, (Cyclohexylamino)methyl-1,1-bisphosphonic acid]
pIC50 [1, 5]: < 5.00

CCCCCCCCCCCS(=O)(=O)CC(P(=O)(O)O)P(=O)(O)O [Compound 56, 1-[(n-Undecylsulfonyl)ethyl]-1,1-biphosphonic acid]
pIC50 [4]: 6.28

CCCCCCCC[S+](C)CC(P(=O)(O)O)P(=O)(O)O.F[B-](F)(F)F (stereo not shown) [Compound 19]
T. gondii growth ED50 [2]: 7.0 µM

CCCCCCCCCNC(P(=O)(O)O)P(=O)(O)O [Compound 27, 1-n-Nonylaminomethyl-1,1-bisphosphonic acid]
pIC50 [1, 5]: < 5.00

CC1CCC(NCC(P(=O)(O)O)P(=O)(O)O)CC1 (stereo not shown) [Compound 49, 1-[(4-methylcyclohexylamino)ethyl] 1,1-bisphosphonic acid]
pIC50 [1, 5]: < 5.00

CCCCCCNCC(P(=O)(O)O)P(=O)(O)O [Compound 12]
T. gondii growth ED50 [2]: 9.4 µM

CCCCNC(P(=O)(O)O)P(=O)(O)O [Compound 22, 1-n-Butylaminomethyl-1,1-bisphosphonic acid]
pIC50 ([1]; read-out: T. cruzi cells ED50): < 5.00

CCCCCCCNCC(P(=O)(O)O)P(=O)(O)O [Compound 13]
T. gondii growth ED50 [2]: > 50.0 µM

CCCCCCCCC(F)(P(=O)(O)O)P(=O)(O)O [Compound 10]
T. gondii growth ED50 [2]: 2.67 µM

O=P(O)(O)C(CNC1CCCC1)P(=O)(O)O [Compound 47, 1-[(Cyclopentylamino)ethyl] 1,1-bisphosphonic acid]
pIC50 [1, 5]: < 5.00

CCCCCCCCCCNC(P(=O)(O)O)P(=O)(O)O [Compound 28, 1-n-Decylaminomethyl-1,1-bisphosphonic acid]
pIC50 [1, 5]: 5.28

O=P(O)(O)C(N1CCCCC1)P(=O)(O)O [Compound 33, (Piperidin-1-yl)methyl-1,1-bisphosphonic acid]
pIC50 [1, 5]: < 5.00

CCCCCCCCCCS(=O)(=O)CC(P(=O)(O)O)P(=O)(O)O [Compound 18]
in vitro activity against T. gondii ED50 ([2]; tachyzoites proliferation): 0.1 µM | T. gondii growth ED50 [2]: 0.11 µM

CCCCCCCCCCSCC(P(=O)(O)O)P(=O)(O)O [Compound 17]
T. gondii growth ED50 [2]: 1.8 µM

CCCCCCCCNC(P(=O)(O)O)P(=O)(O)O [Compound 26, 1-n-Octylaminomethyl-1,1-bisphosphonic acid]
pIC50 [1, 5]: < 5.00

O=P(O)(O)C(CNC1CCCCCC1)P(=O)(O)O [Compound 48, 1-[(Cycloheptylamino)ethyl] 1,1-bisphosphonic acid]
pIC50 [1, 5]: < 5.00

CCCNC(P(=O)(O)O)P(=O)(O)O [Compound 21, 1-n-Propylaminomethyl-1,1-bisphosphonic acid]
pIC50 ([1]; read-out: T. cruzi cells ED50): < 5.00

CCCCCNC(P(=O)(O)O)P(=O)(O)O [Compound 23, 1-n-Pentylaminomethyl-1,1-bisphosphonic acid]
pIC50 [1, 5]: < 5.00

CCCCCCCCCCCCNCC(P(=O)(O)O)P(=O)(O)O [Compound 14]
T. gondii growth ED50 [2]: 6.23 µM

O=P(O)(O)C(NC1CCCCCC1)P(=O)(O)O [Compound 32, (Cycloheptylamino)methyl-1,1-bisphosphonic acid]
pIC50 [1, 5]: < 5.00
